Measurements as given in US5120750A, “Generation of 1,4-dihydropyridine derivatives” (priority 1990, dated 1992).
“Also recorded” adds a separate entry of the source. Read-outs that look alike come from different tables or passages of the source.

What was measured:
[1] = target: T1, calcium channel (Cavia porcellus, UniProt O35505); experiment: Calcium channel antagonist activity: inhibition of muscarinic receptor-mediated Ca2+-dependent contraction (carbachol) of guinea pig ileal longitudinal smooth muscle; format: cell-based; settings: for relative potency as compared with Nifedipine: Nifedipine = reference
T1 construct: Longitudinal smooth muscle segments of 2 cm length were mounted under a resting tension; from tissue; host or cells: ileal longitudinal smooth muscle segments of male albino guinea pigs
Method: Male albino guinea pigs (body weight 300-450 g) were sacrificed by decapitation. The intestine was removed above the ileo-caecal junction. Longitudinal smooth muscle segments of 2 cm length were mounted under a resting tension of 300-400 mg. […] The muscles were equilibrated for 1 h with a solution change every 15 min. Two successive control contractions were elicited at 15 min. intervals with 5×10^-7 M carbachol. The isometric contractions were recorded with a force displacement transducer (FT 03C) on a GRASS* physiograph. The means of the […] contractile responses was taken as the 100% value for the tonic (slow) component of the response. The muscle was washed with Hepes saline solution and was allowed to re-equilibrate. The calcium antagonist (test compound) was added ten min before the dose-response for carbachol was determined. The drug-induced inhibition of contraction was expressed as percent of control. The ID50 values were graphically determined from the concentration-response curves, in triplicate.

[2] = tested on: LTD4; experiment: LTD4 antagonistic activity (general pharmacological screening)
[3] = tested on: angiotensin; experiment: In-vitro angiotensin inhibitory activity; format: biochemical; settings: for angiotensin inhibitory activity (in words): general pharmacological screening; for Percent Inhibition (angiotensin inhibitory activity): in vitro
[4] = In-vivo (P.O.) anti-ulcer stress activity; settings: for anti-ulcer stress Activity: P.O.; for anti-ulcer stressic activity (in words): general pharmacological screening
[5] = In-vivo (P.O.) anti-inflammatory activity; settings: for anti-inflammatory Activity: P.O.
[6] = tested on: heart muscle; experiment: Ionotropic effect on heart muscle; settings: for heart contractile force: at concentrations which exhibit Ca-blocking effect in smooth muscles; for positive ionotropic effect on the heart: in the same concentration as on smooth muscle; for activation at 0.00325 µM: same concentration as smooth muscle relaxant (Compound 11: 3.25×10^-9 M), Compound 19 in the same condition, read-out: positive ionotropic effect on heart muscle
[7] = tested on: heart; experiment: Effect on heart rate
[8] = tested on: heart; settings: J. Cardiovascular Pharmacology, 1987, 10 (Suppl. 1) S60-S65; cited from earlier work
[9] = tested on: SHR Rat; experiment: Blood pressure and heart rate in SHR Rat; format: in vivo; settings: 0.2 mg/Kg
[10] = guinea pig ileal longitudinal smooth muscle, carbachol, 37° C., triplicate, read-out: calcium channel antagonist act., inhib. act. on contractile response to CD ID50

T1 sequence (O35505 whole entry): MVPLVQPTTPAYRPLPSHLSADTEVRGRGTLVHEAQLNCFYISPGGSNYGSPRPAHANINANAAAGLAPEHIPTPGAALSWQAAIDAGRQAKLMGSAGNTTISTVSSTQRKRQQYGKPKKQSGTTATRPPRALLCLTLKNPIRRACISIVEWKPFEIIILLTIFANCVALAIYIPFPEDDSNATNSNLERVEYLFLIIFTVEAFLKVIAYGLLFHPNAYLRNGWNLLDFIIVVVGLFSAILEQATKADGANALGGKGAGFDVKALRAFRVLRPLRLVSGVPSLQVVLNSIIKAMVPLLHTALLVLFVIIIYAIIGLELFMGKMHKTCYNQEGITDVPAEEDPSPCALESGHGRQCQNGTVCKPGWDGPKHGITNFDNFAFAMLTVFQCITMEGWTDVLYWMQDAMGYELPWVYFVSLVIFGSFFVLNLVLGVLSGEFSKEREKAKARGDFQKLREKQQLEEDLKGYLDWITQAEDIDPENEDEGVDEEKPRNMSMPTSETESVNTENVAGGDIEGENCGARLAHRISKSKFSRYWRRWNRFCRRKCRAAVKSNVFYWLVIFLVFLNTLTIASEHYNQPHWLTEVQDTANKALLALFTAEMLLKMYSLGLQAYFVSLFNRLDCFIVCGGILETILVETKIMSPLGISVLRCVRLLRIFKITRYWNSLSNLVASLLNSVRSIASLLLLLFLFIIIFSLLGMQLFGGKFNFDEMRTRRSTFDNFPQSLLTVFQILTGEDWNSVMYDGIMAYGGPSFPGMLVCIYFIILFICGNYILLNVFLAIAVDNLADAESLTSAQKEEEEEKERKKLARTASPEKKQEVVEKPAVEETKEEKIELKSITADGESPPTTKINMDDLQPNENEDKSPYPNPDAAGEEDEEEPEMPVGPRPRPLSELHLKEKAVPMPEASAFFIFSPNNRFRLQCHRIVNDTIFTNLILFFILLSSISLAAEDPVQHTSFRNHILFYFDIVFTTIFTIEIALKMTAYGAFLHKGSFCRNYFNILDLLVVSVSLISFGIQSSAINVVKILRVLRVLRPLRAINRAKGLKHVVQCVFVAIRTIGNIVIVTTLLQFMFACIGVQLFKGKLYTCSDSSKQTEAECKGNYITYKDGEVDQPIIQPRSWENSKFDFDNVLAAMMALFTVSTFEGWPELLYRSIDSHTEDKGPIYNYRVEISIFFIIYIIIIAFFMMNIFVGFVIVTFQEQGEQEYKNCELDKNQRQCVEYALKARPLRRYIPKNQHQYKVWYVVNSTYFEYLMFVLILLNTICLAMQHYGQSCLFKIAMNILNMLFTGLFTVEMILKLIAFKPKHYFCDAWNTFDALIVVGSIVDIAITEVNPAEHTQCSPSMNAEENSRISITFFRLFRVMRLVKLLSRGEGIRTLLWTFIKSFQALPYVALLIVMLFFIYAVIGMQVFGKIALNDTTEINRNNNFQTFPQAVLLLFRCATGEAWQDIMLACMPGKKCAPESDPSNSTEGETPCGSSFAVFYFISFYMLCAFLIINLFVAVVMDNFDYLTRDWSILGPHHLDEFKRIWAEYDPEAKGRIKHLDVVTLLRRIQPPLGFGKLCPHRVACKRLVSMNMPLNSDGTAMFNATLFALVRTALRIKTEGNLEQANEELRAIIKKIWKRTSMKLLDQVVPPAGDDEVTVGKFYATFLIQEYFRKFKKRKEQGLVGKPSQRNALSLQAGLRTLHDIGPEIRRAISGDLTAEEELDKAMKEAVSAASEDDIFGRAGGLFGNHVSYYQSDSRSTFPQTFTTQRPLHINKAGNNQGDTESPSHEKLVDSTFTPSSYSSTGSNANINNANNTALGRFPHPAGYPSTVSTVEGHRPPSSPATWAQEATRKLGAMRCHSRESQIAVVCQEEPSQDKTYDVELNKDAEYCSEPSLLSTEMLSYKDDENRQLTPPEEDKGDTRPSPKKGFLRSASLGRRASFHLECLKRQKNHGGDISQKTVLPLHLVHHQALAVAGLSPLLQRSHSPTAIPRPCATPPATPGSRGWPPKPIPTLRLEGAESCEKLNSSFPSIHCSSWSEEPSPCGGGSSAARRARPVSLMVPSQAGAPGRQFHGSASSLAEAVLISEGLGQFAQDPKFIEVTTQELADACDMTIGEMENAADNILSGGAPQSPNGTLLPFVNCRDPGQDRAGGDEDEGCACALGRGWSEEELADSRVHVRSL

For `COC(=O)C1=C(C)NC(C)=C(C(=O)OCCCCCCCc2nc(C)cs2)C1c1cccc(Cl)c1Cl` (centres unmarked) [Example 17, 3-[7-(4-Methylthiazol-2-yl)heptyloxycarbonyl]-5-methoxycarbonyl-2,6-dimethyl-4-(2,3-dichlorophenyl)-1,4-dihydropyridine], which IC50 [1, 10] is on record?
The IC50 was 48.1 nM.

Which results are given for `COC(=O)C1=C(C)NC(C)=C(C(=O)OCCCCCCCc2cc(C)no2)C1c1cccc([N+](=O)[O-])c1` (centres unmarked) [Example 1, 3-[7-(3-Methylisoxazol-5-yl)heptyloxycarbonyl]-5-methoxycarbonyl-2,6-dimethyl-4-(3-nitrophenyl)-1,4-dihydropyridine]?
LTD4 antagonistic activity (in words) [2]: very strong; angiotensin inhibitory activity (in words) [3]: very strong; Percent Inhibition (angiotensin inhibitory activity) ([3]; 0.0025 μg): 60%; Percent Inhibition (angiotensin inhibitory activity) ([3]; 0.01 μg/ml): 93%; IC50 [1, 10]: 3.84 nM; anti-ulcer stress Activity ([4]; 50 mg/kg): 63%; anti-ulcer stressic activity (in words) [4]: very strong

With `COC(=O)C1=C(C)NC(C)=C(C(=O)OCCCCCCCc2nc(C)cs2)C1c1cccc(C(F)(F)F)c1` (centres unmarked) [Example 13, 3-[7-(4-Methylthiazol-2-yl)heptyloxycarbonyl]-5-methoxycarbonyl-2,6-dimethyl-4-(3-trifluoromethylphenyl)-1,4-dihydropyridine] as the compound, how does the “anti-inflammatory Activity” value ([5]; 25 mg/kg) read?
The value was 43%.

Which “anti-ulcer stress Activity” value ([4]; 50 mg/kg) does the source give for `CN1CCN(CC(=O)N2c3ccccc3C(=O)Nc3cccnc32)CC1` [Pirenzepine, reference compound] here?
The value was 75%.

With `COC(=O)C1=C(C)NC(C)=C(C(=O)OCCCCCCCc2cc(C)no2)C1c1cccc(C(F)(F)F)c1` (centres unmarked) [Example 3, 3-[7-(3-Methylisoxazol-5-yl)heptyloxycarbonyl]-5-methoxycarbonyl-2,6-dimethyl-4-(3-trifluoromethylphenyl)-1,4-dihydropyridine] as the compound, how does the IC50 [1, 10] read?
Its IC50 is 5.13 nM.

Which “anti-inflammatory Activity” value ([5]; 50 mg/kg) does the source give for `CCCCC1C(=O)N(c2ccccc2)N(c2ccccc2)C1=O` [Phenylbutazone, reference compound] here?
Its value is 33%.

With `COC(=O)C1=C(C)NC(C)=C(C(=O)OCCCCCCSc2nc(C)cs2)C1c1cccc([N+](=O)[O-])c1` (centres unmarked) [Example 18, 3-[6-(4-Methylthiazol-2-yl)thiohexyloxycarbonyl]-5-methoxycarbonyl-2,6-dimethyl-4-(3-nitrophenyl)-1,4-dihydropyridine] as the compound, how does the IC50 [1, 10] read?
The IC50 was 5.48 nM.

With `C[C@H](CS)C(=O)N1CCC[C@H]1C(=O)O` [Captopril, reference compound] as the compound, how does the “Percent Inhibition (angiotensin inhibitory activity)” value (shortened to “Percent Inhibition”) ([3]; 0.05 μg/ml) read?
Its value is 69%.

With `COC(=O)C1=C(C)NC(C)=C(C(=O)OCCCCCCS(=O)(=O)c2nc(C)cs2)C1c1cccc([N+](=O)[O-])c1` (centres unmarked) [Example 19, 3-[6-(4-Methylthiazol-2-yl)sulfonylhexyloxycarbonyl]-5-methoxycarbonyl-2,6-dimethyl-4-(3-nitrophenyl)-1,4-dihydropyridine] as the compound, how does the heart contractile force [6] read?
Its heart contractile force is “increase the heart contractile force”.

What about the “positive ionotropic effect on the heart” value [6] of the same compound?
The value was “about 22%”.

What about the activation at 0.00325 µM [6] of the same compound?
The activation at 0.00325 µM was 25%.

And the IC50 [1, 10]?
Its IC50 is 5.81 nM.

And the “relative potency as compared with Nifedipine” value ([1]; smooth muscle)?
Its value is 2.5.

What about the heart rate change [7] of the same compound?
Its heart rate change is “without changing the heart rate”.

For `COC(=O)C1=C(C)NC(C)=C(C(=O)OCCCCCC[S+]([O-])c2nc(C)cs2)C1c1cccc([N+](=O)[O-])c1` (centres unmarked) [Example 20, 3-[6-(4-Methylthiazol-2-yl)sulfinylhexyloxycarbonyl]-5-methoxycarbonyl-2,6-dimethyl-4-(3-nitrophenyl)-1,4-dihydropyridine], which IC50 [1, 10] is on record?
Its IC50 is 15.4 nM.

With `CCOC(=O)C1=C(C)NC(C)=C(C(=O)OC)C1c1cccc(Cl)c1Cl` (centres unmarked) [Felodipine, 3-ethoxycarbonyl-5-methoxycarbonyl-4-(2,3-dichlorophenyl)-2,6-dimethyl-1,4-dihydropyridine] as the compound, how does the “effect on heart rate (tachycardia)” value [8] read?
The value was “creates tachycardia”.

Which “anti-inflammatory Activity” value ([5]; 25 mg/kg) does the source give for `C[C@]12CCC(=O)C=C1CC[C@@H]1[C@@H]2[C@@H](O)C[C@@]2(C)[C@H]1CC[C@]2(O)C(=O)CO` [Hydrocortisone, reference compound] here?
The value was 32%.

Which “LTD4 antagonistic activity (in words)” value [2] does the source give for `COC(=O)C1=C(C)NC(C)=C(C(=O)OCCCCCCCc2nc(C)cs2)C1c1cccc(Cl)c1` (centres unmarked) [Example 15, 3-[7-(4-Methylthiazol-2-yl)heptyloxycarbonyl]-5-methoxycarbonyl-2,6-dimethyl-4-(3-chlorophenyl)-1,4-dihydropyridine] here?
Its value is “very strong”.

What about the “angiotensin inhibitory activity (in words)” value [3] of the same compound?
The value was “very strong”.

And the “Percent Inhibition” value ([3]; 0.1 μg/ml)?
Its value is 64%.

And the IC50 [1, 10]?
The IC50 was 6.25 nM.

What about the “anti-ulcer stress Activity” value ([4]; 40 mg/kg) of the same compound?
Its value is 63%.

What about the “anti-ulcer stressic activity (in words)” value [4] of the same compound?
Its value is “very strong”.

For `COC(=O)C1=C(C)NC(C)=C(C(=O)OCCCCCCCc2nc(C)cs2)C1c1cccc([N+](=O)[O-])c1` (centres unmarked) [Example 11, 3-[7-(4-Methylthiazol-2-yl)heptyloxycarbonyl]-5-methoxycarbonyl-2,6-dimethyl-4-(3-nitrophenyl)-1,4-dihydropyridine], which heart contractile force [6] is on record?
Its heart contractile force is “increase the heart contractile force; also recorded: increases cardia contractile force”.

And the “positive ionotropic effect on the heart” value [6]?
Its value is “about 12%”.

What about the activation at 0.00325 µM [6] of the same compound?
The activation at 0.00325 µM was ~12%.

What about the “relative potency as compared with Nifedipine” value ([1]; smooth muscle) of the same compound?
Its value is 4.3.

And the IC50 ([1]; smooth muscle, read-out: IC50 as calcium antagonist in smooth muscle)?
The IC50 was 3.25 ± 0.33 nM.

What about the “heart rate change in SHR Rat” value [9] of the same compound?
The value was “without changing the heart rate”.

And the heart rate change [7]?
The heart rate change was “without changing the heart rate; also recorded: no effect on the heart”.

With `COC(=O)C1=C(C)NC(C)=C(C(=O)OCCCCCCn2nc(C)cc2C)C1c1cccc([N+](=O)[O-])c1` (centres unmarked) [Example 5, 3-[6-(3,5-Dimethylpyrazol-1-yl)hexyloxycarbonyl]-5-methoxycarbonyl-2,6-dimethyl-4-(3-nitrophenyl) -1,4-dihydropyridine] as the compound, how does the “Percent Inhibition” value ([3]; 0.001 μg) read?
The value was 58%.

What about the “Percent Inhibition” value ([3]; 0.01 μg/ml) of the same compound?
Its value is 95%.

What about the IC50 [1, 10] of the same compound?
Its IC50 is 6.24 nM.

What about the “anti-inflammatory Activity” value ([5]; 40 mg/kg) of the same compound?
The value was 35%.

What about the “anti-inflammatory activity (in words)” value ([5]; general pharmacological screening) of the same compound?
Its value is “very strong”.
